Laboratory results from the Deep4Chem optical property database.
Blank lines part the entries; values can stand above or below the molecule they belong to.

Test: photoluminescence quantum yield (fraction); solvent given as SMILES

- photoluminescence quantum yield (in C1CCCCC1): 0.023
- photoluminescence quantum yield (in CC#N): 0.067
- photoluminescence quantum yield (in CO): 0.026
- photoluminescence quantum yield (in ClC(Cl)Cl): 0.057
SMILES: CN(C)c1ccc2nc(-c3ccc(/C=N/Nc4ccccc4)cc3)sc2c1

- photoluminescence quantum yield (in C1COCCO1): 0.002
SMILES: COC(=O)c1ccc(/C=C2\C=C(c3ccc([N+](=O)[O-])cc3)OC2=O)cc1

- photoluminescence quantum yield (in C1COCCO1): 0
SMILES: CCC1=C(C2=C(C3=C(CC)S(=O)(=O)c4ccccc43)C(F)(F)C(F)(F)C2(F)F)c2ccccc2S1(=O)=O

- photoluminescence quantum yield (in ClCCl): 0.05
SMILES: Cn1c(=O)cc(C(=O)c2ccccc2)c2sc(-c3ccc(N(c4ccccc4)c4ccccc4)cc3)cc21

- photoluminescence quantum yield (in CO): 0.17
SMILES: COc1ccc(-c2ccc3c(c2)nnn3C[C@H](N)C(=O)O)cc1

- photoluminescence quantum yield (in ClCCl): 0.027
SMILES: CCCCCCOc1cc(N(CC)CC)ccc1/C=C(\C#N)c1ccc(/C=C/C(=C(C#N)C#N)c2ccc(N(c3ccccc3)c3ccccc3)cc2)s1

- photoluminescence quantum yield (in ClCCl): 0.3
SMILES: CC(C)(C)c1ccc2c(c1)c1cc(C(C)(C)C)ccc1n2-c1ccc(C#Cc2ccc(C#Cc3ccc(C=C(C#N)C#N)cc3)cc2)cc1

- photoluminescence quantum yield (in ClCCl): 0.35
SMILES: C(=C\c1ncc(-c2ccc(OCc3ccccc3)c(OCc3ccccc3)c2)o1)/c1cccc(N2CCCC2)c1

- photoluminescence quantum yield (in C1CCOC1): 0.057
SMILES: N#Cc1cc(-n2c3ccccc3c3cc(Br)ccc32)c(-n2c3ccccc3c3cc(Br)ccc32)cc1C#N
- photoluminescence quantum yield (in c1ccc2c(c1)c1ccccc1n2-c1ccc(-c2ccc(-n3c4ccccc4c4ccccc43)cc2)cc1): 0.543

- photoluminescence quantum yield (in ClCCl): 0.58
SMILES: C1=Cc2ccc(N(c3ccccc3)c3cccc4ccccc34)cc2C2(c3cc(N(c4ccccc4)c4cccc5ccccc45)ccc31)c1ccccc1-c1ccccc12

- photoluminescence quantum yield (in CC#N): 0.86
- photoluminescence quantum yield (in ClCCl): 0.99
SMILES: O=c1c2cc(F)ccc2nc2n1[B-](F)(F)[n+]1ccccc1-2

- photoluminescence quantum yield (in CC#N): 0.47
SMILES: CCOC(=O)c1c2c3c(ccc(F)c3c3cc4c(cc13)[Si](C)(C)O[Si]4(C)C)N(C)C2=O

- photoluminescence quantum yield (in ClC(Cl)Cl): 0.072
SMILES: CC(C)(C)c1cccc2c1oc1nc3oc4ccc(-n5c6ccccc6c6ccccc65)cc4c3cc12

- photoluminescence quantum yield (in C1COCCO1): 0.29
- photoluminescence quantum yield (in CC#N): 0.01
- photoluminescence quantum yield (in ClCCl): 0.09
SMILES: Cc1nc2cc(/C=C/c3ccc(N(C)C)cc3)ccc2nc1-c1ccccc1

- photoluminescence quantum yield (in ClC(Cl)Cl): 0.04
SMILES: C[Si](C)(C)C#C[Si](c1c2ccccc2cc2ccccc12)(c1c2ccccc2cc2ccccc12)c1c2ccccc2cc2ccccc12

- photoluminescence quantum yield (in CC#N): 0.018
SMILES: Fc1ccc(-[c+]2c3ccccc3sc3ccccc32)cc1

- photoluminescence quantum yield (in CO): 0.28
SMILES: COc1cccc(-c2nc(-c3ccccc3)c(-c3ccccc3)[nH]2)c1

- photoluminescence quantum yield (in ClCCl): 0.04
SMILES: CCN(CC)c1ccc2c(-c3ccccc3C(=O)O)c3c([o+]c2c1)/C(=C/c1ccc(N(C)C)cc1)CCC3

- photoluminescence quantum yield (in CCCCCCC): 0.52
SMILES: c1ccc2cc3c(cc2c1)-c1cccc2cc4ccccc4c-3c12

- photoluminescence quantum yield (in C1CCCCC1): 0.48
- photoluminescence quantum yield (in CCOC(C)=O): 0.46
- photoluminescence quantum yield (in CO): 0.32
SMILES: c1ccc2cc(-n3c4ccccc4c4ccccc43)ccc2c1

- photoluminescence quantum yield (in CCO): 0.0357
- photoluminescence quantum yield (in ClCCl): 0.016
SMILES: N#CC(C#N)=Cc1ccc(-c2ccc(O)c(-c3nc4ccccc4s3)c2)o1

- photoluminescence quantum yield (in ClCCl): 0.61
SMILES: CCCCn1c(-c2ccc(-c3nnc(-c4ccccc4)o3)cc2)nc2c3ccccc3c3ccccc3c21

- photoluminescence quantum yield (in ClC(Cl)Cl): 0.76
SMILES: N#Cc1nc(N(Cc2ccc(F)cc2)Cc2ccc(F)cc2)c(C#N)nc1N(Cc1ccc(F)cc1)Cc1ccc(F)cc1

- photoluminescence quantum yield (in CN(C)C=O): 0.89
SMILES: NCCCCCCCCCCCCN1C(=O)c2ccc3c4ccc5c6c(ccc(c7ccc(c2c37)C1=O)c64)C(=O)NC5=O

More lines, now with the values behind:

SMILES: CC[N+]1(CC)CN2C(=N1)C(C(=O)O)=Cc1cc(OC)c(OC)cc12
- photoluminescence quantum yield (in O): 0.859

SMILES: C[C@]12SC(=O)C=C1c1nc(-c3ccc(Cl)cc3Cl)[nH]c1C1=CC(=O)S[C@@]12C
- photoluminescence quantum yield (in CC#N): 0.11

SMILES: C#CC1CN2CCC1CC2[C@@H](O)c1ccnc2ccc(OC)cc12 (stereo partly drawn)
- photoluminescence quantum yield (in C1CCOC1): 0.063
- photoluminescence quantum yield (in CC#N): 0.008
- photoluminescence quantum yield (in CCCC#N): 0.032
- photoluminescence quantum yield (in Cc1ccccc1): 0.023
- photoluminescence quantum yield (in ClCCl): 0.033

SMILES: Brc1ccc(/C=C/c2ccncn2)cc1
- photoluminescence quantum yield (in ClCCl): 0.01

SMILES: COc1ccc(C2=CC(c3ccc(OC)cc3)=[O+][B-](C(C)=O)(C(C)=O)O2)cc1
- photoluminescence quantum yield (in CC#N): 0.7
- photoluminescence quantum yield (in ClC(Cl)(Cl)Cl): 1

SMILES: N#Cc1cccc(N)c1
- photoluminescence quantum yield (in C1CCCCC1): 0.062
- photoluminescence quantum yield (in CC#N): 0.32
- photoluminescence quantum yield (in CCCCCC): 0.16
- photoluminescence quantum yield (in CCO): 0.19
- photoluminescence quantum yield (in O): 0.0019
- photoluminescence quantum yield (in OCC(F)(F)F): 0.0054

SMILES: CCOC(=O)CN1C(=O)C2=C(c3ccccc3)N(CC(=O)OCC)C(=O)C2=C1c1ccccc1
- photoluminescence quantum yield (in CC#N): 0.31
- photoluminescence quantum yield (in CS(C)=O): 0.56
- photoluminescence quantum yield (in Cc1ccccc1): 0.36

SMILES: CCOC(=O)c1c2c3c(ccc(OC)c3c3cc4c(cc13)[Si](C)(C)O[Si]4(C)C)N(C)C2=O
- photoluminescence quantum yield (in CC#N): 0.46

SMILES: CCCCCCCCCCCCOc1cc2c3c(ccc4c5c(OCCCCCCCCCCCC)cc6c7c(ccc(c1c34)c75)C(=O)N(C1CCCCC1)C6=O)C(=O)N(C1CCCCC1)C2=O
- photoluminescence quantum yield (in ClC(Cl)Cl): 0.724

SMILES: CC[N+]1(CC)CN2C(=N1)C(C(=O)O)=Cc1cc(Cl)ccc12
- photoluminescence quantum yield (in O): 0.352

SMILES: CCCCC1(CCCC)c2cc(C#Cc3ccc4ccc5cccc6ccc3c4c56)ccc2-c2ccc(N(c3ccccc3)c3ccccc3)cc21
- photoluminescence quantum yield (in Cc1ccccc1): 0.72

SMILES: CC(C)(C)NC1=CC2=c3cc(NC(C)(C)C)c4nc(C(F)(F)C(F)(F)C(F)(F)F)nc5c(NC(C)(C)C)cc(c3c54)C3=CC(NC(C)(C)C)=C4N=C(C(F)(F)C(F)(F)C(F)(F)F)N=C1C4C32 (stereo not drawn)
- photoluminescence quantum yield (in C1CCOC1): 0.25

SMILES: CC(C)(C)c1ccc2c(c1)c1cc(C(C)(C)C)ccc1n2-c1cccc(-c2nc(-c3cccc(-n4c5ccc(C(C)(C)C)cc5c5cc(C(C)(C)C)ccc54)c3)nc(-c3cccc(P(=O)(c4ccccc4)c4ccccc4)c3)n2)c1
- photoluminescence quantum yield (in O=P(c1ccccc1)(c1ccccc1)c1ccccc1Oc1ccccc1P(=O)(c1ccccc1)c1ccccc1): 0.55

SMILES: CCOC(=O)COc1ccc(/C=C/c2c(CC)c(C)c3n2[B-](F)(F)[N+]2=C(c4[nH]c(C)c(CC)c4C)c4ccccc4C2=C3C)cc1
- photoluminescence quantum yield (in C1CCOC1): 0.28
- photoluminescence quantum yield (in CC#N): 0.09
- photoluminescence quantum yield (in CCCCCC): 0.74
- photoluminescence quantum yield (in CO): 0.2
- photoluminescence quantum yield (in Cc1ccccc1): 0.71
- photoluminescence quantum yield (in ClCCl): 0.68

SMILES: C#CCNC1=C2C=C(c3cc4n(c3)[B-](F)(F)[N+]3=CC=CC3=C4c3c(C)cc(C)cc3C)C(C)=[N+]2[B-](F)(F)n2c(C)ccc21
- photoluminescence quantum yield (in C1CCCCC1): 0.42
- photoluminescence quantum yield (in CCOC(C)=O): 0.06

SMILES: N#Cc1ccc(-c2ccc(C3=CCCCC3)s2)s1
- photoluminescence quantum yield (in CCO): 0.06

SMILES: CCCCC1(CCCC)c2cc(C#Cc3ccc4ccc5cccc6ccc3c4c56)ccc2-c2ccc(C#Cc3ccc4ccc5cccc6ccc3c4c56)cc21
- photoluminescence quantum yield (in Cc1ccccc1): 0.99

SMILES: C(#Cc1ccc(N(c2ccc(C#Cc3ccc(-c4cc(-c5ccccc5)nc(-c5ccccc5)c4)cc3)cc2)c2ccc(C#Cc3ccc(-c4cc(-c5ccccc5)nc(-c5ccccc5)c4)cc3)cc2)cc1)c1ccc(-c2cc(-c3ccccc3)nc(-c3ccccc3)c2)cc1
- photoluminescence quantum yield (in C1CCOC1): 0.12
- photoluminescence quantum yield (in Cc1ccccc1): 0.16

SMILES: COc1cc(OC)c(C2=C3C(C)=CC(C)=[N+]3[B-](F)(F)n3c(C)cc(C)c32)c(OC)c1
- photoluminescence quantum yield (in C1CCOC1): 0.78
- photoluminescence quantum yield (in CC#N): 0.55
- photoluminescence quantum yield (in CC(=O)C(C)(C)C): 0.69
- photoluminescence quantum yield (in CC(C)=O): 0.8
- photoluminescence quantum yield (in CCCCCC): 0.95
- photoluminescence quantum yield (in CCOC(C)=O): 0.64
- photoluminescence quantum yield (in CO): 0.68
